Assay results: US20240226228A1, “ANTIMICROBIAL PEPTOID HAVING IMPROVED SELECTIVITY AND ANTIMICROBIAL COMPOSITION COMPRISING SAME” (priority 2021, published 2024)
Where a SMILES comes first, the peptide text is derived from it. [ ]: non-standard residue; d: D form. Gly(N(CH2)2(3-indolyl)) = O=C(O)CNCCc1c[nH]c2ccccc12; Gly(N-CH2CH2-imidazol-4-yl) = O=C(O)CNCCc1c[nH]cn1; Nspe = C[C@H](NCC(=O)O)c1ccccc1; Nphe = O=C(O)CNCc1ccccc1; Nlys = NCCCCNCC(=O)O

Tested on: E. coli ATCC25922
Assay: not given
Conditions: E. coli and S. aureus; compared to Peptoid 1, parent peptoid or TFA salt as stated
Experimental: To measure the antimicrobial activity of the peptoids synthesized in Example 1, an E. coli ATCC25922 strain as gram-negative bacteria and an S. aureus KCTC25923 strain as gram-positive bacteris, were treated with the peptoids, followed by measuring the minimum inhibitory concentration (MIC). Peptoids 1 and 2 are antimicrobial peptoids known in the art, and used as controls for comparing antimicrobial activity with a novel peptoid.
Specifically, the S. aureus KCTC25923 or E. coli ATCC25922 strain was inoculated into a Mueller Hinton Broth (MHB2) liquid medium in which cations had been adjusted in the medium, cultured at 37° C. for 18 hours, subcultured, and then incubated for 4 hours. Afterward, for each bacterial strain, an optical density (OD, 0.001) was adjusted so that the bacterial count became 2×10^5 to 5×10^5 colony-forming units (CFU) per mL, which was then diluted with a MHB2 liquid medium containing 0.02% bovine serum albumin and 0.001% acetic acid, and dispensed at 100 μL into a 96-well microplate. Using sterile water, a peptoid stock 40 times stronger than a concentration to be tested was subjected to two-fold serial dilution and assessed at six different concentrations, and the maximum value of the peptoid concentrations was 25 μM. Subsequently, the plate was incubated at 37° C. for 24 hours. Afterward, optical density (OD) values at 600 nm were measured using a microplate reader (Bio-Rad).
Each MIC value was determined as the average value of a value obtained through three independent experiments.
Referring to Table 22, to measure the antimicrobial activity of the peptoids synthesized in Example 3, an MIC was measured by treating gram-negative bacteria, that is, the E. coli ATCC25922 strain, and gram-positive bacteria, that is, the S. aureus ATCC25923 strain, with the peptoids. Here, Peptoid 1 is a conventionally known antimicrobial peptoid, and Omiganan is a derivative of indolicidin, which is an antimicrobial peptide, under clinical development, and was used as a control for comparing antimicrobial activity with the novel peptoid.

Row | Compound | antimicrobial activity (in words)
1 | C[C@@H](c1ccccc1)N(CC(=O)N(CCCCN)CC(=O)N(CCc1c[nH]c2ccccc12)CC(=O)N(CCc1c[nH]c2ccccc12)CC(N)=O)C(=O)CN(CCCCN)C(=O)CN(CCc1c[nH]cn1)C(=O)CN(C(=O)CN(C(=O)CN(CCCCN)C(=O)CN(C(=O)CN(C(=O)CNCCCCN)[C@@H](C)c1ccccc1)[C@@H](C)c1ccccc1)[C@@H](C)c1ccccc1)[C@@H](C)c1ccccc1 [Peptoid 79, H-NLys-Nspe-Nspe-NLys-Nspe-Nspe-NHis-NLys-Nspe-NLys-NhTrp-NhTrp-NH2] (H-[Nlys][Nspe][Nspe][Nlys][Nspe][Nspe][Gly(N-CH2CH2-imidazol-4-yl)][Nlys][Nspe][Nlys][Gly(N(CH2)2(3-indolyl))][Gly(N(CH2)2(3-indolyl))]-NH2) | retained antimicrobial activity
2 | C[C@@H](c1ccccc1)N(CC(N)=O)C(=O)CN(CCc1c[nH]cn1)C(=O)CN(CCCCN)C(=O)CN(C(=O)CN(C(=O)CN(CCCCN)C(=O)CN(C(=O)CN(C(=O)CN(CCCCN)C(=O)CN(CCc1c[nH]c2ccccc12)C(=O)CN(CCc1c[nH]c2ccccc12)C(=O)CNCCCCN)[C@@H](C)c1ccccc1)[C@@H](C)c1ccccc1)[C@@H](C)c1ccccc1)[C@@H](C)c1ccccc1 [Peptoid 76, H-NLys-NhTrp-NhTrp-NLys-Nspe-Nspe-NLys-Nspe-Nspe-NLys-NHis-Nspe-NH2] (H-[Nlys][Gly(N(CH2)2(3-indolyl))][Gly(N(CH2)2(3-indolyl))][Nlys][Nspe][Nspe][Nlys][Nspe][Nspe][Nlys][Gly(N-CH2CH2-imidazol-4-yl)][Nspe]-NH2) | retained antimicrobial activity

Same assay, conditions: compared to Peptoid 1

Row | Compound | antimicrobial activity against E. coli (in words)
3 | C[C@@H](c1ccccc1)N(CC(=O)N(CCCCN)CC(=O)N(CC(=O)N(CC(=O)N(CCCCN)CC(=O)N(CC(=O)N(CC(=O)N(CCCCN)CC(=O)N(CC(=O)N(CC(=O)N(CCc1c[nH]c2ccccc12)CC(N)=O)[C@@H](C)c1ccccc1)[C@@H](C)c1ccccc1)[C@@H](C)c1ccccc1)[C@@H](C)c1ccccc1)[C@@H](C)c1ccccc1)[C@@H](C)c1ccccc1)C(=O)CN(C(=O)CN(CCCCN)C(=O)CNCCc1c[nH]c2ccccc12)[C@@H](C)c1ccccc1 [Peptoid 5, H-NhTrp-NLys-Nspe-Nspe-NLys-Nspe-Nspe-NLys-Nspe-Nspe-NLys-Nspe-Nspe-NhTrp-NH2] (H-[Gly(N(CH2)2(3-indolyl))][Nlys][Nspe][Nspe][Nlys][Nspe][Nspe][Nlys][Nspe][Nspe][Nlys][Nspe][Nspe][Gly(N(CH2)2(3-indolyl))]-NH2) | lost antimicrobial activities against E. coli
4 | C[C@@H](c1ccccc1)N(CC(N)=O)C(=O)CN(C(=O)CN(CCCCN)C(=O)CN(C(=O)CN(C(=O)CN(CCCCN)C(=O)CN(C(=O)CN(C(=O)CN(CCCCN)C(=O)CN(C(=O)CN(C(=O)CN(CCCCN)C(=O)CN(CCc1c[nH]c2ccccc12)C(=O)CNCCc1c[nH]c2ccccc12)[C@@H](C)c1ccccc1)[C@@H](C)c1ccccc1)[C@@H](C)c1ccccc1)[C@@H](C)c1ccccc1)[C@@H](C)c1ccccc1)[C@@H](C)c1ccccc1)[C@@H](C)c1ccccc1 [Peptoid 6, H-NhTrp-NhTrp-NLys-Nspe-Nspe-NLys-Nspe-Nspe-NLys-Nspe-Nspe-NLys-Nspe-Nspe-NH2] | lost antimicrobial activities against E. coli

Tested on: red blood cells
Assay: Hemolysis assay
Type: cell-based, Sprague-Dawley mouse
Conditions: not given
Experimental: To confirm cytotoxicity by the hemolytic activity of each peptoid synthesized in Example 1, hemolysis analysis was performed. The used blood was collected from a 13-week-old male Sprague-Dawley […] in a tube containing 158 UPS sodium heparin for preventing coagulation, and centrifuged at 4° C. for 10 minutes at 1,000 rpm. Afterward, the plasma was carefully removed, red blood cells were washed with phosphate-buffered saline (PBS: a mixed solution of 35 mM phosphate-buffered solution/150 mM NaCl, pH 7.4) three times and centrifuged at 1,000 rpm for 10 minutes. A 10% (v/v) red blood cell solution diluted in PBS was dispensed at 150 μL into a 96-well plate (microtiter plate), a peptoid solution was added at 50 μL, and 1% Triton X-100 was added. Afterward, the red blood cells were incubated at 37° C. for 1 hour, and the incubated 96-well plate was centrifuged at 1,000 rpm for 15 minutes. A supernatant was obtained and transferred to a new 96-well plate at 150 μL, and absorbance was measured using a spectrophotometer at 540 nm. Percent hemolysis may be calculated by the following Equation 1, and the corresponding results are shown in Tables 11 to 13. % Hemolysis=(A−C)/(B−C)×100 [Equation 1] In Equation 1, A is the absorbance of the peptoid solution at 540 nm, B is the absorbance of the 0.1% Triton X-100 at 540 nm, and C is the absorbance of the PBS solution at 540 nm.

Row | Compound | cytotoxicity against red blood cells / hemolysis (in words) | HC10 | HC50 | Hmax (100 μM)
5 | C[C@@H](c1ccccc1)N(CC(=O)N(CCCCN)CC(=O)N(CCc1c[nH]c2ccccc12)CC(=O)N(CCc1c[nH]c2ccccc12)CC(N)=O)C(=O)CN(CCCCN)C(=O)CN(CCc1c[nH]cn1)C(=O)CN(C(=O)CN(C(=O)CN(CCCCN)C(=O)CN(C(=O)CN(C(=O)CNCCCCN)[C@@H](C)c1ccccc1)[C@@H](C)c1ccccc1)[C@@H](C)c1ccccc1)[C@@H](C)c1ccccc1 [Peptoid 79, H-NLys-Nspe-Nspe-NLys-Nspe-Nspe-NHis-NLys-Nspe-NLys-NhTrp-NhTrp-NH2] (H-[Nlys][Nspe][Nspe][Nlys][Nspe][Nspe][Gly(N-CH2CH2-imidazol-4-yl)][Nlys][Nspe][Nlys][Gly(N(CH2)2(3-indolyl))][Gly(N(CH2)2(3-indolyl))]-NH2) | improved in toxicity | – | – | –
6 | C[C@@H](c1ccccc1)N(CC(N)=O)C(=O)CN(CCc1c[nH]cn1)C(=O)CN(CCCCN)C(=O)CN(C(=O)CN(C(=O)CN(CCCCN)C(=O)CN(C(=O)CN(C(=O)CN(CCCCN)C(=O)CN(CCc1c[nH]c2ccccc12)C(=O)CN(CCc1c[nH]c2ccccc12)C(=O)CNCCCCN)[C@@H](C)c1ccccc1)[C@@H](C)c1ccccc1)[C@@H](C)c1ccccc1)[C@@H](C)c1ccccc1 [Peptoid 76, H-NLys-NhTrp-NhTrp-NLys-Nspe-Nspe-NLys-Nspe-Nspe-NLys-NHis-Nspe-NH2] (H-[Nlys][Gly(N(CH2)2(3-indolyl))][Gly(N(CH2)2(3-indolyl))][Nlys][Nspe][Nspe][Nlys][Nspe][Nspe][Nlys][Gly(N-CH2CH2-imidazol-4-yl)][Nspe]-NH2) | improved in toxicity | – | – | –
7 | C[C@@H](c1ccccc1)N(CC(N)=O)C(=O)CN(CCCCN)C(=O)CN(C(=O)CN(C(=O)CN(CCCCN)C(=O)CN(C(=O)CN(C(=O)CN(CCCCN)C(=O)CN(C(=O)CN(CCCCN)C(=O)CN(CCCCN)C(=O)CN(C(=O)CNCCc1c[nH]c2ccccc12)[C@@H](C)c1ccccc1)[C@@H](C)c1ccccc1)[C@@H](C)c1ccccc1)[C@@H](C)c1ccccc1)[C@@H](C)c1ccccc1)[C@@H](C)c1ccccc1 [Peptoid 61] | – | 19.3 µM | 65.4 µM | 79.9 ± 0.7%
8 | C[C@@H](c1ccccc1)N(CC(N)=O)C(=O)CN(C(=O)CN(CCCCN)C(=O)CN(CCc1c[nH]c2ccccc12)C(=O)CN(C(=O)CN(CCCCN)C(=O)CN(C(=O)CN(C(=O)CN(CCCCN)C(=O)CN(C(=O)CN(C(=O)CNCCCCN)[C@@H](C)c1ccccc1)[C@@H](C)c1ccccc1)[C@@H](C)c1ccccc1)[C@@H](C)c1ccccc1)[C@@H](C)c1ccccc1)[C@@H](C)c1ccccc1 [Peptoid 8] | – | 12.8 µM | 28.4 µM | 105.1 ± 2.2%
9 | C[C@@H](c1ccccc1)N(CC(N)=O)C(=O)CN(CCCCN)C(=O)CN(C(=O)CN(C(=O)CN(CCCCN)C(=O)CN(C(=O)CN(CCCCN)C(=O)CN(CCCCN)C(=O)CN(C(=O)CN(C(=O)CN(CCCCN)C(=O)CN(C(=O)CNCCc1c[nH]c2ccccc12)[C@@H](C)c1ccccc1)[C@@H](C)c1ccccc1)[C@@H](C)c1ccccc1)[C@@H](C)c1ccccc1)[C@@H](C)c1ccccc1)[C@@H](C)c1ccccc1 [Peptoid 62] | – | 36.2 µM | > 100 µM | 44.8 ± 8.1%
10 | C[C@@H](c1ccccc1)N(CC(N)=O)C(=O)CN(C(=O)CN(CCCCN)C(=O)CN(C(=O)CN(C(=O)CN(CCCCN)C(=O)CN(C(=O)CN(C(=O)CN(CCCCN)C(=O)CN(C(=O)CN(C(=O)CN(CCCCN)C(=O)CN(CCc1c[nH]c2ccccc12)C(=O)CNCCc1c[nH]c2ccccc12)[C@@H](C)c1ccccc1)[C@@H](C)c1ccccc1)[C@@H](C)c1ccccc1)[C@@H](C)c1ccccc1)[C@@H](C)c1ccccc1)[C@@H](C)c1ccccc1)[C@@H](C)c1ccccc1 [Peptoid 6] | – | 9.6 µM | 22.0 µM | 101.6 ± 5.8%
11 | C[C@@H](c1ccccc1)N(CC(=O)N(CCCCN)CC(=O)N(CC(=O)N(CC(=O)N(CCCCN)CC(=O)N(CC(=O)N(CC(=O)N(CCCCN)CC(=O)N(CC(=O)N(CC(=O)N(CC(N)=O)Cc1ccccc1)[C@@H](C)c1ccccc1)[C@@H](C)c1ccccc1)[C@@H](C)c1ccccc1)[C@@H](C)c1ccccc1)[C@@H](C)c1ccccc1)[C@@H](C)c1ccccc1)C(=O)CN(C(=O)CN(CCCCN)C(=O)CNCc1ccccc1)[C@@H](C)c1ccccc1 [Peptoid 42] (H-[Nphe][Nlys][Nspe][Nspe][Nlys][Nspe][Nspe][Nlys][Nspe][Nspe][Nlys][Nspe][Nspe][Nphe]-NH2) | – | < 3.1 µM | 6.6 µM | 105.9 ± 1.1%
12 | C[C@@H](c1ccccc1)N(CC(N)=O)C(=O)CN(C(=O)CN(CCCCN)C(=O)CN(C(=O)CN(C(=O)CN(CCCCN)C(=O)CN(C(=O)CN(C(=O)CN(CCCCN)C(=O)CN(C(=O)CN(C(=O)CN(CCCCN)C(=O)CN(Cc1ccccc1)C(=O)CNCc1ccccc1)[C@@H](C)c1ccccc1)[C@@H](C)c1ccccc1)[C@@H](C)c1ccccc1)[C@@H](C)c1ccccc1)[C@@H](C)c1ccccc1)[C@@H](C)c1ccccc1)[C@@H](C)c1ccccc1 [Peptoid 43] | – | < 3.1 µM | 6.4 µM | 105.6 ± 3.8%
13 | C[C@@H](c1ccccc1)N(CC(N)=O)C(=O)CN(CCCCN)C(=O)CN(C(=O)CN(CCCCN)C(=O)CN(CCCCN)C(=O)CN(C(=O)CN(C(=O)CN(CCCCN)C(=O)CN(C(=O)CN(C(=O)CN(CCCCN)C(=O)CN(C(=O)CNCCc1c[nH]c2ccccc12)[C@@H](C)c1ccccc1)[C@@H](C)c1ccccc1)[C@@H](C)c1ccccc1)[C@@H](C)c1ccccc1)[C@@H](C)c1ccccc1)[C@@H](C)c1ccccc1 [Peptoid 63] | – | 85.0 µM | > 100 µM | 12.7 ± 0.9%
